Data reported in ChEMBL document CHEMBL3301546, “MMV Malaria Box yeast growth screening”.

Legend:
Format in all cases: functional
[1] = tested on: Saccharomyces cerevisiae; experiment: MMV: Growth assays were conducted using the prototrophic S. cerevisiae strain JHY222. Each MMV compound (0.1 mM) was tested in minimal media containing ethanol and glycerol as carbon sources (Yeast Nitrogen Base, Ethanol, Glycerol; YNBEG). The growth rate in the presence of each MMV compound was calculated as follows: (i) the first 10 OD readings were averaged and subtracted from all OD readings of the corresponding curve to set the baseline of the growth curve to zero, and (ii) the area under the curve (AUC) was then calculated as the sum of all OD readings. […] A relative growth value was calculated as follows: AUC(DRUG) - AUC(DMSO)/AUC(DMSO); where AUC(DMSO) represents growth measured in a DMSO control well that was on the same microtiter plate of the drug-treated culture.
[2] = tested on: Saccharomyces cerevisiae; experiment: (§1) MMV: Growth assays were conducted using the prototrophic S. cerevisiae strain JHY222. Each MMV compound (0.1 mM) was tested in rich media containing dextrose as a carbon source (Yeast Extract, Peptone, Dextrose; YPD). The growth rate in the presence of each MMV compound was calculated as follows: (i) the first 10 OD readings were averaged and subtracted from all OD readings of the corresponding curve to set the baseline of the growth curve to zero, and (ii) the area under the curve (AUC) was then calculated as the sum of all OD readings. […] A relative growth value was calculated as follows: AUC(DRUG) - AUC(DMSO)/AUC(DMSO); where AUC(DMSO) represents growth measured in a DMSO control well that was on the same microtiter plate of the drug-treated culture.
[3] = tested on: Saccharomyces cerevisiae; experiment: as §1, with “minimal” for “rich”, “Nitrogen Base,” for “Extract, Peptone,”, “YNBD).” for “YPD).”

Row | Compound | Relative Growth [1] | Relative Growth [2] | Relative Growth [3]
1 | O=C(Nc1ccc(N2CCN(Cc3ccccc3)CC2)cc1)c1cccs1.O=C(O)C(F)(F)F | -0.0052 | -0.129 | -0.0637
2 | CCOc1cc2c(cc1OCC)C(c1cc(C)c(O)c(C)c1)NCC2.Cl (configuration not stated) | -0.7495 | -0.1843 | -0.1636
3 | c1ccc(/C2=N/c3ccccc3/N=C(/c3ccccc3)c3ccccc32)cc1 | -0.1082 | -0.0437 | -0.0429
4 | Cc1ccccc1OCCSc1nc2ccc(NC(=O)c3ccccc3)cc2s1 | -0.0554 | -0.3917 | -0.1178
5 | COc1cc(C(=O)Nc2nc3c(cc4c5c(cccc53)CC4)s2)cc(OC)c1OC | -0.0592 | 0.0021 | -0.1254
6 | CC1CCN(Cc2c(O)ccc3cc(-c4nc5ccccc5s4)c(=O)oc23)CC1 | -0.3243 | -0.0068 | -0.0399
7 | CCOc1ccc(-n2cc(-c3ccccc3)c3c(SCc4cc(C)ccc4C)ncnc32)cc1 | -0.2113 | -0.0534 | -0.0883
8 | CCn1c(CN2CCN(Cc3ccccc3)CC2)nc2cc(NC(=O)c3cccs3)ccc21 | -0.226 | -0.0008 | -0.4968
9 | O=c1c2c([nH]c3ccccc13)CCCC2 | -0.326 | -0.0433 | -0.018
10 | CCCc1cc(O)c2c3c(c(=O)oc2c1)CN(C)CC3 | -0.0215 | -0.0062 | -0.0292
11 | O=C(Nc1ccc(Cl)cc1)N1CCN(c2ccc3nncn3n2)CC1 | 0.053 | 0.0021 | -0.0344
12 | CC(Oc1ccc(NC(=O)c2cccs2)cc1)C(=O)c1ccc(Cl)cc1 (configuration not stated) | 0.0184 | 0.0426 | 0.1664
13 | Cc1ccc(OCCCCCCNCCO)c(C)c1 | -0.0581 | -0.034 | 0.026
14 | O=C(Nc1ccc(-c2nc3cc4ccccc4cc3[nH]2)cc1)c1cccc(Br)c1 | 0.0139 | -0.1256 | 0.0231
15 | COc1ccccc1C(=O)ON=C(N)Cc1cccc2ccccc12 | 0.0174 | 0.0139 | 0.0083
16 | CCOC(=O)C1=C(c2ccccc2)N=c2sc(=Cc3cc(C)n(-c4ccc(F)cc4)c3C)c(=O)n2C1c1cccc(OC)c1OC (configuration not stated) | 0.1067 | -0.0436 | 0.0967
17 | CCOc1cc(CNC(C)C(O)c2ccccc2)cc(Cl)c1OCC (configuration not stated) | -0.0694 | -0.0689 | 0.088
18 | CCOc1ccc2nc(C)cc(Nc3ccc(Br)cc3)c2c1 | 0.014 | 0.0466 | -0.9176
19 | Cc1cccc(-n2ncc3c(O)nc(-n4nc(C)cc4NC(=O)c4cc5ccccc5o4)nc32)c1 | -0.0822 | -0.0284 | -0.2202
20 | COc1cc2c(cc1OC)C1=NNC(=O)C1=NC(C)(C)C2 | -0.3659 | -0.48 | -0.0857
21 | CCN(CC)c1cc(C)c2cc(NC(=O)c3cccc(OC)c3)ccc2n1 | 0.0148 | 0.0048 | -0.0149
22 | CCOC(=O)c1cn(CC)c2cc(N(C)CCc3ccc(OC)c(OC)c3)c(F)cc2c1=O | -0.9835 | -0.6378 | -0.8912
23 | COc1ccc(C(=O)Nc2nonc2-c2ccc(OC)c(OC)c2)cc1Cl | 0.0586 | -0.0037 | 0.1144
24 | CCOC(=O)C1=CN(C)C=C(C(=O)OCC)C1c1cc(Br)c(OCC)c(OC)c1 | -0.4757 | -0.1817 | 0.2106
25 | Cn1c(=O)c2cc(C(=O)NCCCN3CCCCCC3)sc2c2ccccc21 | 0.0018 | -0.0314 | -0.1099
26 | CN1c2ccccc2N(C)C1c1ccc2c(c1)OCO2 | 0.1265 | 0.0103 | -0.0051
27 | COc1cccc(C(=O)Nc2ccc(-c3nc4ccccc4[nH]3)cc2)c1 | 0.0109 | -0.0256 | 0.0184

Row | Compound | Relative Growth [1] | Relative Growth [2] | Relative Growth [3]
28 | Nc1ccc(-c2nc3cc(Cc4ccc5[nH]c(-c6ccc(N)cc6)nc5c4)ccc3[nH]2)cc1 | -0.1364 | -0.9832 | -0.0312
29 | O=C(Nc1nc(-c2ccccn2)cs1)c1ccccc1Br | 0.1503 | 0.0205 | -0.0666
30 | O=C(NC1CCCC1)c1ccc(N2CCC(NCc3cccc(C(F)(F)F)c3)CC2)cc1 | -0.7428 | 0.09 | -0.054
31 | CC1=C(CC(=O)c2cccc([N+](=O)[O-])c2)C(=O)c2ccccc2C1=O | -1.022 | -0.9318 | -1.0109
32 | Oc1ccc(-c2nc(-c3ccc4oc5ccc(-c6[nH]c(-c7ccc(O)cc7)nc6-c6ccccc6)cc5c4c3)c(-c3ccccc3)[nH]2)cc1 | -0.1734 | -0.979 | 0.0106
33 | COc1ccc(CN2CCN(Cc3ccccc3)CC2)c(O)c1 | 0.0718 | -0.0119 | 0.0478
34 | Cc1cc(NC(=O)c2ccc(-c3ccccc3)cc2)no1 | 0.0052 | -0.0826 | 0.0468
35 | CCCCCCc1cc2cc(-c3nc4ccccc4[nH]3)c(=Nc3ccccc3C)oc2cc1O | -0.1213 | -0.0113 | 0.1107
36 | Oc1c2c(nc3cc(-c4ccccc4)nn13)CCCC2 | -0.0208 | -0.4545 | 0.0363
37 | COc1cccc(NC(=O)[C@H](C(C)C)n2c(=O)[nH]c3ccccc3c2=O)c1 | 0.0015 | 0.0157 | -0.0427
38 | CCOc1ccc(-c2nonc2NC(=O)c2cccc(C)c2)cc1OCC | -0.1269 | 0.0084 | 0.0895
39 | COc1ccc(Nc2cc(C)nc(NCc3ccccc3)n2)cc1 | 0.0325 | 0.0201 | 0.0189
40 | Cc1ccc(Cl)cc1N1CCN(CCCNC(=O)C2CCN(c3nc4ccccc4[nH]3)CC2)CC1 | 0.0403 | -0.0122 | 0.0248
41 | COc1ccc(-c2c(C)nn3c(N)c(C#N)cnc23)cc1OC | -0.7097 | -0.0311 | -0.0079
42 | O=C(CSc1ccc2nnc(-c3cccc(F)c3)n2n1)Nc1ccc2c(c1)OCO2 | -0.3285 | -0.0335 | -0.0662
43 | C=C(C)CCC(C)N1CCC(N2CCC(C(=O)NCCc3ccccc3)CC2)CC1 (configuration not stated) | -0.0755 | -0.0567 | 0.0261
44 | CCn1nc(-c2ccc(C(=O)OC)cc2)nc2c(=O)n(C)c(=O)nc1-2 | 0.1078 | 0.0103 | 0.0968
45 | CN1CCN(c2ncnc3c2[nH]c2ccc(Cl)cc23)CC1 | 0.0216 | 0.0011 | 0.0494
46 | Cn1c(C(=O)c2cccc3ccccc23)nc2ccccc21 | 0.1204 | -0.0135 | 0.0393
47 | COCCNCC(O)Cn1c2ccc(Cl)cc2c2cc(Cl)ccc21 (configuration not stated) | -0.4771 | -0.9998 | -0.1893
48 | O=C(NC(c1ccccc1)c1ccc2cccnc2c1O)c1ccccc1 (configuration not stated) | -0.2626 | 0.0169 | -0.0745
49 | Cc1ccc(N2C3c4ccccc4N(S(=O)(=O)c4ccc(C)cc4)C2c2ccccc2N3S(=O)(=O)c2ccc(C)cc2)cc1 | -0.3051 | -0.0583 | -0.0282
50 | Cc1c(C)n(Cc2ccc(F)cc2)c2ccc(C(=O)NCc3ccco3)cc12 | -1.0264 | -0.5565 | -0.1235
51 | Cc1sc2ncnc(Sc3nc4ccccc4[nH]3)c2c1C | 0.0545 | 0.0241 | 0.0477
52 | COc1ccc(-c2nc(N3CCN(C(=O)C4CCCCC4)CC3)c3c4c(sc3n2)CCCC4)cc1 | -0.067 | -0.0342 | 0.0845
53 | O=C(Nc1ccc(-c2nc3cc(NC(=O)c4ccc(Cl)cc4)ccc3[nH]2)cc1)c1ccc(Cl)cc1 | 0.0694 | -0.0297 | 0.0064
54 | CCCc1c(CC)c(=N)c2ccccc2n1C | -0.1464 | -0.0123 | -0.0316
